Laboratory results from paper PMC7323870 (Bioorganic & medicinal chemistry letters, 2010).

Biological target: HIV IN (Human immunodeficiency virus type 1 group M subtype B, UniProt P04585)
Assay: HIV IN 3′ processing
Assay type: biochemical

Row | SMILES | IC50 [µM]
1 | CNC(=O)c1nc(C)n(Cc2ccc(F)cc2)c(=O)c1O [compound 6] | > 333
2 | CNC(=O)c1nc(Cc2ccc(F)cc2)[nH]c(=O)c1O [compound 7] | > 333
3 | COCCNC(=O)c1nc(Cc2ccc(F)cc2)[nH]c(=O)c1O [compound 8] | > 333
4 | CN(C)CCCNC(=O)c1nc(Cc2ccc(F)cc2)[nH]c(=O)c1O [compound 9] | > 333
5 | O=C(O)c1nc(Cc2ccc(F)cc2)[nH]c(=O)c1O [compound 10] | > 333
6 | CNC(=O)c1nc(Cc2ccc(F)cc2)n(C)c(=O)c1O [compound 11] | > 333
